# pIC50: −log10 of the molar value.
# What was measured:
# [1] = target: T1, PDE Type V (cGMP phosphodiesterase, cGMP-PDE) (Bos taurus, UniProt Q28156); test: Phosphodiesterase inhibition in vitro, Type V (cGMP phosphodiesterase, cGMP-PDE); type: biochemical; conditions: cGMP-PDE from bovine lung; 1 μM 3H-cGMP substrate; pH 7.5; 25 minutes, room temperature
# T1 construct: homogeneous enzyme obtained from bovine lung and purified by ion-exchange chromatography, gel filtration, and sucrose gradient centrifugation; from tissue; host or cells: bovine lung
# [2] = system: spontaneously hypertensive rats (SHR); test: Antihypertensive activity in conscious spontaneously hypertensive rats (SHR); type: in vivo, rat; conditions: 10 mpk po, fasted overnight, mean blood pressure
# Description: The ability of the compounds of the present invention to lower blood pressure can be assessed in vivo in conscious spontaneously hypertensive rats (SHR). SHR males are purchased from Taconic Farms, Germantown New York and are approximately 16-18 weeks old when anesthetized with ether. The caudal (ventral tail) artery is cannulated with polyethylene tubing (PESO) and blood pressure and heart rate are recorded as described by Baum, T. et. al, J. Cardiovasc. Pharmacol. Vol 5, pp. 655-667, (1983). Rats are placed into plastic cylindrical cages where they rapidly recover consciousness. Blood pressure and heart rate are allowed to stabilize for approximately 90 minutes prior to compound administration. Compounds are administered orally as solutions or suspensions in 0.4% aqueous methylcellulose vehicle via a feeding needle. The compound or 0.4% aqueous methylcellulose vehicle are given in a volume of 4 ml/kg to SHRs that had been fasted overnight. Activity is expressed as the fall in mean blood pressure (MBP) in millimeters of mercury (mm Hg). Compound-induced changes are compared with the changes in an appropriate placebo group.
# [3] = Plasma levels in SHR after oral dosing; type: in vivo; conditions: rat, 10 mg/kg, 10 mpk orally, sampled 0.5, 1, 2, 3 and 4 hours, read-out: Plasma Level AUC
# Description: SHRs dosed orally with test compound at 10 mpk and plasma levels were subsequently measured at intervals of 0.5, 1, 2, 3 and 4 hours. Plasma levels (μg/ml) were plotted versus hours post dosing and the area under the curve (AUC, μghr/ml) was calculated.
# [4] = target: T2, PDE Type I (calcium-calmodulin dependent phosphodiesterase, CaM-PDE) (Bos taurus, UniProt P14100); test: Phosphodiesterase inhibition in vitro, Type I (calcium-calmodulin dependent phosphodiesterase, CaM-PDE); type: biochemical; conditions: CaM-PDE from bovine aorta; 1 μM 3H-cGMP substrate; pH 7.5; 25 minutes, room temperature
# T2 construct: from tissue; host or cells: bovine aorta
pIC50 [1],AUC at 4 h [3] [ng·h/mL],pIC50 [4],Structure (SMILES),SHR Antihypertensive: Fall in MBP [2] [mmHg]
6.77,4800,7.96,CN1C(=O)c2[nH]c(Cc3ccc(-c4ccc(Cl)cc4)cc3)nc2N2CC3(CCCC3)N=C12 [Example 1],-24
6.68,5890,7.92,CN1C(=O)c2[nH]c(Cc3ccc(-c4ccc(Br)cc4)cc3)nc2N2CC3(CCCC3)N=C12 [Example 2],-11
6.28,7730,8.05,CN1C(=O)c2[nH]c(Cc3ccc(-c4ccc(F)cc4)cc3)nc2N2CC3(CCCC3)N=C12 [Example 3],-35
6.30,3340,8.30,"COc1ccc(-c2ccc(Cc3nc4c([nH]3)C(=O)N(C)C3=NC5(CCCC5)CN34)cc2)cc1 [Ref. Cpd., 2'-[[(4'-methoxy-1,1'-biphenyl) -4-yl]methyl]-5'-methyl-spiro[cyclopentane-1,7'(8'H)-[3H]imidazo-[2,1-b]purin]-4'(5'H)-one, reference compound]",-35
